Source: patent US8415469B2, “Compounds and methods for kinase modulation, and indications therefor” (Plexxikon Inc., priority 2005, dated 2013)

Legend:
Assay type in all cases: biochemical
Ret = target: T1, Ret (Homo sapiens, UniProt P07949); assay: AlphaScreen kinase assay, Ret; details: read-out: IC50, activity toward kinase Ret
T1 construct: P1378.pET-SF BI-PTP RET H661-R1012 HIS; made in house
T1 sequence (P07949 with tags, fused parts or gaps): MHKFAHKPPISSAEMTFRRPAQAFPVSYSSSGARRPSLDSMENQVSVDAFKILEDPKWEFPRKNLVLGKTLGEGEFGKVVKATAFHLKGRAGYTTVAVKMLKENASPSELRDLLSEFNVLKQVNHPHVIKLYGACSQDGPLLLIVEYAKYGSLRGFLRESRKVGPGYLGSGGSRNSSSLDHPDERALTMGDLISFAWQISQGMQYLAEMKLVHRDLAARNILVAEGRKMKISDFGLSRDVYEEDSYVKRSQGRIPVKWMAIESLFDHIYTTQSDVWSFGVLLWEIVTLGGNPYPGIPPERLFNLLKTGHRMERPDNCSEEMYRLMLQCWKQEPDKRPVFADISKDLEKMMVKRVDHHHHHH

Pyk2 = target: T2, Pyk2 (Homo sapiens, UniProt Q14289); assay: AlphaScreen kinase assay, Pyk2; details: read-out: IC50, activity toward kinase Pyk2
T2 construct: purchased Upstate Biotechnology
T2 sequence (Q14289 whole entry): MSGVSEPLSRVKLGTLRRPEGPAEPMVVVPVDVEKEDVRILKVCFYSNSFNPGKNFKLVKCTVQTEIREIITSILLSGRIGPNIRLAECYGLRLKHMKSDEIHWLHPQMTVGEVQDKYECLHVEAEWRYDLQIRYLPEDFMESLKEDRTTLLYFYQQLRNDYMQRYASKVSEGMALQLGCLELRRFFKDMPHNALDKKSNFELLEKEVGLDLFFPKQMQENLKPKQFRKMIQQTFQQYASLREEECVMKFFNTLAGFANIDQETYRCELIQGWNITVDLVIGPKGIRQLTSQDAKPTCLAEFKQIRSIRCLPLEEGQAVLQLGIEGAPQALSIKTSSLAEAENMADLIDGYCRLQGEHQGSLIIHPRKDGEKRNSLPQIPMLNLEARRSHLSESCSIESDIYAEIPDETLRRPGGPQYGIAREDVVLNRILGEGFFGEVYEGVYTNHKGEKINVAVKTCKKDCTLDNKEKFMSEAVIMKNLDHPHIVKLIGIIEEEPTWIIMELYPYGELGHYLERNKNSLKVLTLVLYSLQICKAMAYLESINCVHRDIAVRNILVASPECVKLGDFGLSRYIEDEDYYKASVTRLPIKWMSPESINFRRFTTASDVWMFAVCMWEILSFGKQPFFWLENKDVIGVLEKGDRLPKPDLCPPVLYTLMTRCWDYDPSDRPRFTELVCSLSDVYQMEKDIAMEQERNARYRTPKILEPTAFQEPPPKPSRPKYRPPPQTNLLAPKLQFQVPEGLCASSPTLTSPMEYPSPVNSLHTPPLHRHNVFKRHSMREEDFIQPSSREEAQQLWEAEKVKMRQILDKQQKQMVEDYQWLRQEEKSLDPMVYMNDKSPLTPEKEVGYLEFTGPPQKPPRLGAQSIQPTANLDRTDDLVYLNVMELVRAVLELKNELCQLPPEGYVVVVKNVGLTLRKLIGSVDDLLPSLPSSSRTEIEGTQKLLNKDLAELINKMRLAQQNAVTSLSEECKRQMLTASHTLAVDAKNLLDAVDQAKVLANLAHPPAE

B-Raf V600E = target: T3, B-Raf V600E (Homo sapiens, UniProt P15056, V600E); assay: AlphaScreen kinase assay, B-Raf V600E; details: read-out: IC50, activity toward kinase B-Raf V600E
T3 construct: P4254. pFastBacBD-CDC37 BRAF D437-K722-X, V600E; His6 with pFastBac HT leader (TEV site) (N); made in house; host or cells: Sf9 (baculovirus; chaperone CDC37 co-expressed)
T3 sequence (P15056 with tags, fused parts or gaps V600E): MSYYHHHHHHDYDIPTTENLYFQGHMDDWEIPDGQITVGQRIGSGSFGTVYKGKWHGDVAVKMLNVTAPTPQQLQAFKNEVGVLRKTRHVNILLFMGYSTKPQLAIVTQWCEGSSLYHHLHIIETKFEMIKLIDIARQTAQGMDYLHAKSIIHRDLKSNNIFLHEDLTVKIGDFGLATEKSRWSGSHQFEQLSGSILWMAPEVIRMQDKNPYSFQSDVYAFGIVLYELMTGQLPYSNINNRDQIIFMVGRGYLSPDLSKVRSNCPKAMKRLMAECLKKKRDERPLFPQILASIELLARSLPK

c-Raf-1 = target: T4, c-Raf-1 (Homo sapiens, UniProt P04049); assay: AlphaScreen kinase assay, c-Raf-1; details: read-out: IC50, activity toward kinase c-Raf-1
T4 construct: purchased Upstate Biotechnology
T4 sequence (P04049 whole entry): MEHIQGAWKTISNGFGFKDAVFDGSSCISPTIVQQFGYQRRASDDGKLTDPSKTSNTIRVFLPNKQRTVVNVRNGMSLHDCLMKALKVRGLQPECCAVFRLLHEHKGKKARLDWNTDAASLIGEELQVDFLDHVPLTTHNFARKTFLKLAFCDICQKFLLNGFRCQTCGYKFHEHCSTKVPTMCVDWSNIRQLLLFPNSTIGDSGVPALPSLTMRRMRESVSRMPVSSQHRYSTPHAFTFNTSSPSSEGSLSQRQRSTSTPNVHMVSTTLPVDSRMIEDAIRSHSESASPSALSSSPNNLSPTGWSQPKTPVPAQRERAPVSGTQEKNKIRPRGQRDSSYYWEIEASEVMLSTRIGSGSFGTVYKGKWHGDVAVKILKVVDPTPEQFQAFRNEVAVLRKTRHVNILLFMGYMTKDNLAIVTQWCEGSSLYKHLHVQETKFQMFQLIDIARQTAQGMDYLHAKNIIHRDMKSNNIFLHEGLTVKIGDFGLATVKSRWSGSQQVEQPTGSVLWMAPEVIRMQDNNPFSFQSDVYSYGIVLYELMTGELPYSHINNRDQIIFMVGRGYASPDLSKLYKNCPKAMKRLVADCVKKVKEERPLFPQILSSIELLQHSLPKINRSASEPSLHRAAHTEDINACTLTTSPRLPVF

FGFR1 = target: T5, FGFR1 (Homo sapiens, UniProt P11362, C488A/C584S); assay: AlphaScreen kinase assay, FGFR1; details: read-out: IC50, activity toward kinase FGFR
T5 construct: P1351.pET N6 BI-PTP FGFR A458-E765-X C488A, C584S; made in house; host or cells: E. coli (PTP1B co-expressed)
T5 sequence (P11362 458-765 C488A/C584S): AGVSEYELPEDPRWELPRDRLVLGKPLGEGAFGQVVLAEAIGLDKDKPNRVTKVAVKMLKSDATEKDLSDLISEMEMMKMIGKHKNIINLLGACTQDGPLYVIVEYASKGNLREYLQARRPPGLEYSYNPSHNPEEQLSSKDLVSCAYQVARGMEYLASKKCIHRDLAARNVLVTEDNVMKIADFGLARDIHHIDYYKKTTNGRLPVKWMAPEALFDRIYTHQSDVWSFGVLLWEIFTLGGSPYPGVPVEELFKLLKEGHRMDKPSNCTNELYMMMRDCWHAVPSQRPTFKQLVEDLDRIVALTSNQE

Kdr = target: T6, Kdr (Homo sapiens, UniProt P35968); assay: Z'-Lyte FRET kinase assay (Invitrogen), Kdr; details: read-out: IC50, activity toward kinase Kdr
T6 construct: purchased Invitrogen (assay run by Invitrogen)

B-Raf = target: T7, B-Raf (Homo sapiens, UniProt P15056); assay: AlphaScreen kinase assay, B-Raf; details: read-out: IC50, activity toward kinase B-Raf
T7 construct: purchased Upstate Biotechnology
T7 sequence (P15056 whole entry): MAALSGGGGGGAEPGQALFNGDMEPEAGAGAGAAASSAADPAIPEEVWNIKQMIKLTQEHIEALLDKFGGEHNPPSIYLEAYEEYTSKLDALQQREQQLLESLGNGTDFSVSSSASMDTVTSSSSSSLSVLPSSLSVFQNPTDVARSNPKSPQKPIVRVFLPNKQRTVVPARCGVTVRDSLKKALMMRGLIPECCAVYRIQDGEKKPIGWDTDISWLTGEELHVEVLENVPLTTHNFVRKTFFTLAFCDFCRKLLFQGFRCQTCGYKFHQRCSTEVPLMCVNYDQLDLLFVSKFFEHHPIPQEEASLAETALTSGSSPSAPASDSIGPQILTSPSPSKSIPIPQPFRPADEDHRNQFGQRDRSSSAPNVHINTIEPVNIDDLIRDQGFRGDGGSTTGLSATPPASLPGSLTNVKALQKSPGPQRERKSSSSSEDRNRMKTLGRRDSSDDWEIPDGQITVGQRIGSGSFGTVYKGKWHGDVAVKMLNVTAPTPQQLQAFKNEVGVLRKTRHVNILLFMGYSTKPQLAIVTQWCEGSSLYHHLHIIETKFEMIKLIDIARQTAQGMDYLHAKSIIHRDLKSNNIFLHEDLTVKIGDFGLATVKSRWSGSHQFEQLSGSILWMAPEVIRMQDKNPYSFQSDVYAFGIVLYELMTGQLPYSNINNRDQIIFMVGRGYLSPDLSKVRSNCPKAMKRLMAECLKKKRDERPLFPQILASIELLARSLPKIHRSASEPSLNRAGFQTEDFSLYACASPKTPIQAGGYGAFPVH

Jnk3 = target: T8, Jnk3 (Homo sapiens, UniProt P53779); assay: AlphaScreen kinase assay, Jnk3; details: read-out: IC50, activity toward kinase Jnk3
T8 construct: purchased Upstate Biotechnology
T8 sequence (P53779 whole entry): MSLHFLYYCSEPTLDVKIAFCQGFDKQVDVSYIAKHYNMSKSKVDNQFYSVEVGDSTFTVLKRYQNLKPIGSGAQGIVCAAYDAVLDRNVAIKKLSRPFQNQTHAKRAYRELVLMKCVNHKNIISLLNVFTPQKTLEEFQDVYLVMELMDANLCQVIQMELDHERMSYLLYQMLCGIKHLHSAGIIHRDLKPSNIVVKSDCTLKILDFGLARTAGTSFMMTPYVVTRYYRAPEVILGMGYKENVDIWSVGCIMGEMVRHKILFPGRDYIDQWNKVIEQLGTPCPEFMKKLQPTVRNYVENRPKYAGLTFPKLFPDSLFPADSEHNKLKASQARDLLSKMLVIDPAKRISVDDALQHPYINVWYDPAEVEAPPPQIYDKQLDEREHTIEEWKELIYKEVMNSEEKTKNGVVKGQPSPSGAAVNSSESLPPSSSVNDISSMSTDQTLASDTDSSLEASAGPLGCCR

Kit = target: T9, Kit (Homo sapiens, UniProt P10721); assay: AlphaScreen kinase assay, Kit; details: read-out: IC50, activity toward kinase Kit
T9 construct: P1332.N6 BI PTP KIT M552-K948-X COD; His6 (N); made in house; host or cells: E. coli (PTP1B co-expressed)
T9 sequence (P10721 with tags, fused parts or gaps): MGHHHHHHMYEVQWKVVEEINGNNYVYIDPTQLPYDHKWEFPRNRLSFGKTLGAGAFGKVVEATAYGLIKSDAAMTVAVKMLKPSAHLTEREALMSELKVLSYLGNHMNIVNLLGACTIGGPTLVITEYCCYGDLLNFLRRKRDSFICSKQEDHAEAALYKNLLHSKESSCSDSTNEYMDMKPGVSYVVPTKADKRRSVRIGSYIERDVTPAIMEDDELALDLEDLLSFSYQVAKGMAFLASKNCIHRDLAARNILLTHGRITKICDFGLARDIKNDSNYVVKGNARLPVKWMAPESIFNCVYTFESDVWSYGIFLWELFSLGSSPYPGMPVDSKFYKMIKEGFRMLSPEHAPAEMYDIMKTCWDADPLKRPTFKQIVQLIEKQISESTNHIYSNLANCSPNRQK

Flt1 = target: T10, Flt1 (Homo sapiens, UniProt P17948); assay: AlphaScreen kinase assay, Flt1; details: read-out: IC50, activity toward kinase Flt1
T10 construct: P1826.pETN6 BI-PTP FLT1 M799-D1165-X WT; His6 (N); made in house; host or cells: E. coli (PTP1B co-expressed)
T10 sequence (P17948 with tags, fused parts or gaps): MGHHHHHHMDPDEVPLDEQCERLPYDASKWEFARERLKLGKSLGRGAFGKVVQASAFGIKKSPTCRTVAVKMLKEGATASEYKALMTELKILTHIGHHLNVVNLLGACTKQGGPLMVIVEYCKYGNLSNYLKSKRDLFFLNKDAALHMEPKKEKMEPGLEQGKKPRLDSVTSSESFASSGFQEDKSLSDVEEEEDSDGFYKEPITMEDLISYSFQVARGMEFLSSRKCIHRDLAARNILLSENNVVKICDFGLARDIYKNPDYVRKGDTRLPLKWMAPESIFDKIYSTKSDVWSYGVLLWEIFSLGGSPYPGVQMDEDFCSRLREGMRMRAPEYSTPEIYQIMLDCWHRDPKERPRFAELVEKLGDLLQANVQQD

Fak = target: T11, Fak (Homo sapiens, UniProt Q05397); assay: AlphaScreen kinase assay, Fak; details: read-out: IC50, activity toward kinase Fak
T11 construct: P1358.pFastBacHtb FAK S411-Q686-X; His6 with pFastBacHTb leader (TEV site) (N); made in house; host or cells: Sf9 (baculovirus)

Jnk2 = target: T12, Jnk2 (Homo sapiens, UniProt P45984); assay: AlphaScreen kinase assay, Jnk2; details: read-out: IC50, activity toward kinase Jnk2
T12 construct: purchased Roche Protein Expression Group (Indianapolis, IN)
Method in brief: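 Peptide phosphorylation detected by proximity: streptavidin donor beads bind biotinylated substrate, acceptor beads carry antibody to phosphorylated substrate, singlet oxygen transfer gives emission. Dose-response over 8 points (1:3 steps); stocks 20 mM in DMSO.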

Src = target: T13, Src (Homo sapiens, UniProt P12931); assay: AlphaScreen kinase assay, Src; details: read-out: IC50, activity toward kinase Src
T13 construct: P1144. pET-N6 BI-PTP SRC V86-L536-X; made in house

Jnk1 = target: T14, Jnk1 (Homo sapiens, UniProt P45983); assay: AlphaScreen kinase assay, Jnk1; details: read-out: IC50, activity toward kinase Jnk1
T14 construct: purchased Upstate Biotechnology

Fms = target: T15, Fms (Homo sapiens, UniProt P07333); assay: AlphaScreen kinase assay, Fms; details: read-out: IC50, activity toward kinase Fms
T15 construct: purchased Upstate Biotechnology
T15 sequence (P07333 20-972): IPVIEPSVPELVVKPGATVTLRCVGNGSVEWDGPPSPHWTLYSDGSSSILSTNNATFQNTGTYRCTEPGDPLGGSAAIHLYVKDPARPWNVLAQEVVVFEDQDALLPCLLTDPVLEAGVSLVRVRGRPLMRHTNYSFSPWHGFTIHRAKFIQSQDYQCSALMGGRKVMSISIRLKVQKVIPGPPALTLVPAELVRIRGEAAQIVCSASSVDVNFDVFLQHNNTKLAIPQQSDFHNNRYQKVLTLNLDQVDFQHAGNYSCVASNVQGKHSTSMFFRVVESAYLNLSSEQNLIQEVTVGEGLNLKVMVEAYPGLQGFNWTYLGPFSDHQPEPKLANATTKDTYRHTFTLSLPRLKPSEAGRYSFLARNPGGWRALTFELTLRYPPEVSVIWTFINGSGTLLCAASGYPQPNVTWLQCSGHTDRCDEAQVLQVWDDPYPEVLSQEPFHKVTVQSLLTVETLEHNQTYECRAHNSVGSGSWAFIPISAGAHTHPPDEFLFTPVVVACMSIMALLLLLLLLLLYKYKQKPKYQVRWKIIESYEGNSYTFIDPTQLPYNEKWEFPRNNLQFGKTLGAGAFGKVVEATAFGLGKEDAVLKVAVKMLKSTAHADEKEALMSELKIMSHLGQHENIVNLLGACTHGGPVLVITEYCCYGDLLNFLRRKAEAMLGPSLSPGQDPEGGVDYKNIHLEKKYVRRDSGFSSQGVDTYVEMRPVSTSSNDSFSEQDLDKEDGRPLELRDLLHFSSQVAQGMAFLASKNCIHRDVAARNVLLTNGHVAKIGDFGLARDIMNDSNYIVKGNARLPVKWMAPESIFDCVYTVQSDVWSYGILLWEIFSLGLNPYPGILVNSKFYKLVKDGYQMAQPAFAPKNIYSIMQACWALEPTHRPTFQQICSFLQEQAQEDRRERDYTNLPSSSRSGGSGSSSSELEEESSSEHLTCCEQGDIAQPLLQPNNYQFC

Btk = target: T16, Btk (Homo sapiens, UniProt Q06187); assay: Z'-Lyte FRET kinase assay (Invitrogen), Btk; details: read-out: IC50, activity toward kinase Btk
T16 construct: purchased Invitrogen (assay run by Invitrogen)

Row | SMILES | IC50 (Pyk2) [µM] | IC50 (B-Raf V600E) [µM] | IC50 (c-Raf-1) [µM] | IC50 (FGFR1) [µM] | IC50 (B-Raf) [µM] | IC50 (Kit) [µM] | IC50 (Fms) [µM] | also measured
1 | CCCNC(=O)Nc1ccc(F)c(C(=O)c2c[nH]c3ncc(-c4cccnc4)cc23)c1F [Compound P-0774, 1-[2,4-difluoro-3-(5-pyridin-3-yl-1H-pyrrolo[2,3-b]pyridine-3-carbonyl)-phenyl]-3-propyl-urea] |  | ≤ 10 | ≤ 10 | ≤ 10 | ≤ 10 | ≤ 10 | ≤ 10 | IC50 (Flt1): ≤ 10 µM; IC50 (Jnk3): ≤ 10 µM; IC50 (Fak): ≤ 10 µM; IC50 (Jnk2): ≤ 10 µM; IC50 (Src): ≤ 10 µM; IC50 (Jnk1): ≤ 10 µM
2 | CCCC(=O)Nc1ccc(F)c(C(OC)c2c[nH]c3ncc(OC)cc23)c1F (stereo not drawn) [Compound P-1368] | ≤ 10 | ≤ 10 |  |  |  | ≤ 10 | ≤ 10 | 
3 | Clc1cccc(Nc2ccc3cc[nH]c3n2)c1 [Compound P-1373, (3-Chloro-phenyl)-(1H-pyrrolo[2,3-b]pyridin-6-yl)-amine] | ≤ 10 |  |  |  |  |  |  | IC50 (Flt1): ≤ 10 µM
4 | Clc1ccccc1Nc1ccc2cc[nH]c2n1 [Compound P-1375, (2-Chloro-phenyl)-(1H-pyrrolo[2,3-b]pyridin-6-yl)-amine] | ≤ 10 |  |  |  |  |  |  | IC50 (Jnk3): ≤ 10 µM
5 | Cc1cc(Nc2ccc3cc[nH]c3n2)no1 [Compound P-1376, (5-Methyl-isoxazol-3-yl)-(1H-pyrrolo[2,3-b]pyridin-6-yl)-amine] | ≤ 10 |  |  |  |  | ≤ 10 | ≤ 10 | 
6 | c1ccc(N2CCOCC2)c(Nc2ccc3cc[nH]c3n2)c1 [Compound P-1377, (2-Morpholin-4-yl-phenyl)-(1H-pyrrolo[2,3-b]pyridin-6-yl)-amine] | ≤ 10 |  |  | ≤ 10 |  |  |  | 
7 | Brc1cnc2[nH]cc(Cc3ccccc3OCc3ccccc3)c2c1 [Compound P-1379] | ≤ 10 |  |  |  |  |  |  | 
8 | OC(c1ccccc1OCc1ccccc1)c1c[nH]c2ncc(Br)cc12 (stereo not drawn) [Compound P-1380] | ≤ 10 |  |  | ≤ 10 |  | ≤ 10 | ≤ 10 | 
9 | NC(=O)c1cccc(-c2cnc3[nH]cc(Cc4ccccc4OCc4ccccc4)c3c2)c1 [Compound P-1381] | ≤ 10 | ≤ 10 |  | ≤ 10 |  |  | ≤ 10 | 
10 | CCCCNC(=O)n1ccc2c(C(=O)c3c[nH]c4ncc(-c5cccnc5)cc34)cccc21 [Compound P-1486, 4-(5-Pyridin-3-yl-1H-pyrrolo[2,3-b]pyridine-3-carbonyl)-indole-1-carboxylic acid butylamide] |  | ≤ 10 |  | ≤ 10 | ≤ 10 | ≤ 10 | ≤ 10 | IC50 (Flt1): ≤ 10 µM; IC50 (Btk): ≤ 10 µM; IC50 (Jnk3): ≤ 10 µM; IC50 (Fak): ≤ 10 µM; IC50 (Jnk2): ≤ 10 µM; IC50 (Src): ≤ 10 µM; IC50 (Jnk1): ≤ 10 µM

Now from value to compound, other results behind:

Row | IC50 (Pyk2) [µM] | IC50 (B-Raf V600E) [µM] | IC50 (c-Raf-1) [µM] | IC50 (FGFR1) [µM] | IC50 (B-Raf) [µM] | IC50 (Kit) [µM] | IC50 (Fms) [µM] | SMILES | also measured
11 | ≤ 10 |  |  |  |  |  |  | CC(=O)c1cccc(-c2ccnc3[nH]ccc23)c1 [Compound P-0116] | IC50 (Ret): ≤ 10 µM
12 | ≤ 10 | ≤ 10 | ≤ 10 | ≤ 10 |  |  |  | O=C(c1ccc(O)cc1Cl)c1c[nH]c2ncc(Br)cc12 [Compound P-0137] | IC50 (Ret): ≤ 10 µM; IC50 (Kdr): ≤ 10 µM
13 | ≤ 10 | ≤ 10 | ≤ 10 |  | ≤ 10 |  |  | COC(c1c(F)ccc(NS(=O)(=O)C(C)C)c1F)c1c[nH]c2ncc(Br)cc12 (stereo not drawn) [Compound P-0356, Propane-2-sulfonic acid {3-[(5-bromo-1H-pyrrolo[2,3-b]pyridin-3-yl)-methoxy-methyl]-2,4-difluoro-phenyl}-amide] | 
14 | ≤ 10 |  |  | ≤ 10 | ≤ 10 | ≤ 10 |  | COc1cccc(Cc2c[nH]c3ncc(-c4ccc(C(N)=O)cc4)cc23)c1 [Compound P-0697] | IC50 (Jnk3): ≤ 10 µM; IC50 (Ret): ≤ 10 µM
15 | ≤ 10 | ≤ 10 | ≤ 10 | ≤ 10 | ≤ 10 |  |  | CCCS(=O)(=O)Nc1ccc(F)c(C(=O)c2c[nH]c3ncc(-c4ccc(C(F)(F)F)cc4)cc23)c1F [Compound P-0912, Propane-1-sulfonic acid {2,4-difluoro-3-[5-(4-trifluoromethyl-phenyl)-1H-pyrrolo[2,3-b]pyridine-3-carbonyl]-phenyl}-amide] | 
16 | ≤ 10 | ≤ 10 | ≤ 10 | ≤ 10 | ≤ 10 | ≤ 10 | ≤ 10 | CCCS(=O)(=O)Oc1ccc(F)c(C(=O)c2c[nH]c3ncc(Br)cc23)c1F [Compound P-0919, propane-1-sulfonic acid 3-(5-bromo-1H-pyrrolo[2,3-b]pyridine-3-carbonyl)-2,4-difluoro-phenyl ester] | 
17 | ≤ 10 | ≤ 10 | ≤ 10 |  | ≤ 10 |  |  | CCCS(=O)(=O)Nc1ccc(F)c(C(O)c2c[nH]c3ncc(Nc4ccccc4)cc23)c1F (stereo not drawn) [Compound P-0928] | 
18 | ≤ 10 | ≤ 10 | ≤ 10 |  | ≤ 10 |  |  | CCCS(=O)(=O)Nc1ccc(F)c(C(O)c2c[nH]c3ncc(-c4ccccc4)cc23)c1F (stereo not drawn) [Compound P-0946] | 
19 | ≤ 10 | ≤ 10 | ≤ 10 | ≤ 10 | ≤ 10 |  |  | COC(c1c(F)ccc(NS(=O)(=O)C(C)C)c1F)c1c[nH]c2ncc(-c3cccnc3)cc12 (stereo not drawn) [Compound P-0947, Propane-2-sulfonic acid {2,4-difluoro-3-[methoxy-(5-pyridin-3-yl-1H-pyrrolo[2,3-b]pyridin-3-yl)-methyl]-phenyl}-amide] | 
20 | ≤ 10 | ≤ 10 | ≤ 10 |  |  |  |  | CCCS(=O)(=O)Nc1ccc(F)c(C(OC)c2c[nH]c3ncc(-c4ccccc4)cc23)c1F (stereo not drawn) [Compound P-0957] | 
21 | ≤ 10 | ≤ 10 | ≤ 10 | ≤ 10 |  | ≤ 10 |  | CCCS(=O)(=O)Nc1ccc(F)c(Cc2c[nH]c3ncc(N4CCOCC4)cc23)c1F [Compound P-0964, Propane-1-sulfonic acid [2,4-difluoro-3-(5-morpholin-4-yl-1H-pyrrolo[2,3-b]pyridin-3-ylmethyl)-phenyl]-amide] | 
22 | ≤ 10 | ≤ 10 |  |  |  |  |  | CC(=O)Nc1ccc(F)c(C(O)c2c[nH]c3ncc(-c4cccnc4)cc23)c1F (stereo not drawn) [Compound P-1069] | 
23 | ≤ 10 |  |  | ≤ 10 |  | ≤ 10 |  | CCCC(=O)Nc1ccc(F)c(C(O)c2c[nH]c3ncc(OC)cc23)c1F (stereo not drawn) [Compound P-1367] | 
